Assay results from PubChem BioAssay AID2060611 (Molecular Pharmacology Branch, DTP, NCI, 2025).
Values joined by “and” are separate entries in the source; they are usually repeats but may differ in a detail not shown here. Equal entries are not always repeated.

System: 628569-122-R-J1-PDC complex spheroid viability
Test: Anticancer human tumor 628569-122-R-J1-PDC patient-derived head and neck squamous carcinoma cell line growth inhibition [CLK]
Settings: for viability, T/C: stronger effect = lower value; active = viability on the fitted dose curve at most 10% of control; inactive = the rest
In short: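 Multi-cell-type spheroids combined patient-derived tumor cells with HUVEC endothelial cells and human mesenchymal stem cells. Paired agents were dosed in half-log steps down from about clinical Cmax, or from 10 microM where Cmax was unknown.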

[1] = curve of first compound, second compound 0.0316 µM
[2] = curve of first compound, second compound 0.1 µM
[3] = curve of first compound, second compound 0.316 µM
[4] = curve of first compound, second compound 1 µM
[5] = curve of first compound, second compound 3.16 µM
[6] = curve of first compound, second compound 10 µM
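Note: spheroids exposed to agents for seven days before readout.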
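Throughout, for viability, T/C: 100% = DMSO vehicle control viability.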

NC(=O)C(=Cn1cnc(-c2cc(C(F)(F)F)cc(C(F)(F)F)c2)n1)c1cncnc1 + CNC(=O)c1ccc(Nc2nc(OC3CCCC3)c3c(-c4ccc5nc(C)oc5c4)c[nH]c3n2)c(OC)c1
inactive: viability, T/C (second compound 0.0316 µM, first compound 0.00949 µM) 75.8% | viability, T/C (second compound 0.0316 µM, first compound 0.03 µM) 61.6% | viability, T/C (second compound 0.0316 µM, first compound 0.0949 µM) 69.8% | viability, T/C (second compound 0.0316 µM, first compound 0.3 µM) 52% | viability, T/C (second compound 0.0316 µM, first compound 0.949 µM) 50.8% | viability, T/C (second compound 0.0316 µM, first compound 3 µM) 35.6% | viability, T/C (second compound 0.1 µM, first compound 0.00949 µM) 52.4% | viability, T/C (second compound 0.1 µM, first compound 0.03 µM) 53.9% | viability, T/C (second compound 0.1 µM, first compound 0.0949 µM) 50.5% | viability, T/C (second compound 0.1 µM, first compound 0.3 µM) 47.5% | viability, T/C (second compound 0.1 µM, first compound 0.949 µM) 39.5% | viability, T/C (second compound 0.1 µM, first compound 3 µM) 32.4% | viability, T/C (second compound 0.316 µM, first compound 0.00949 µM) 47.1% | viability, T/C (second compound 0.316 µM, first compound 0.03 µM) 51.7% | viability, T/C (second compound 0.316 µM, first compound 0.0949 µM) 44.1% | viability, T/C (second compound 0.316 µM, first compound 0.3 µM) 42.5% | viability, T/C (second compound 0.316 µM, first compound 0.949 µM) 35.9% | viability, T/C (second compound 0.316 µM, first compound 3 µM) 33.8% | viability, T/C (second compound 1 µM, first compound 0.00949 µM) 40.7% | viability, T/C (second compound 1 µM, first compound 0.03 µM) 45.9% | viability, T/C (second compound 1 µM, first compound 0.0949 µM) 31.9% | viability, T/C (second compound 1 µM, first compound 0.3 µM) 29.5% | viability, T/C (second compound 1 µM, first compound 0.949 µM) 26.2% | viability, T/C (second compound 1 µM, first compound 3 µM) 25.7% | viability, T/C (second compound 3.16 µM, first compound 0.00949 µM) 36.9% | viability, T/C (second compound 3.16 µM, first compound 0.03 µM) 41.2% | viability, T/C (second compound 3.16 µM, first compound 0.0949 µM) 28.7% | viability, T/C (second compound 3.16 µM, first compound 0.3 µM) 25.5% | viability, T/C (second compound 3.16 µM, first compound 0.949 µM) 15.9% | viability, T/C (second compound 3.16 µM, first compound 3 µM) 12.3% | viability, T/C (second compound 10 µM, first compound 0.00949 µM) 38.6% | viability, T/C (second compound 10 µM, first compound 0.03 µM) 33.7% | viability, T/C (second compound 10 µM, first compound 0.0949 µM) 30.7% | viability, T/C (second compound 10 µM, first compound 0.3 µM) 21.4% | viability, T/C (second compound 10 µM, first compound 0.949 µM) 17.7% | viability, T/C (second compound 10 µM, first compound 3 µM) 13.7%
0.137 µM: IC50 [2]
0.681 µM: IC50 [1]
< 0.00949 µM: IC50 [3] | IC50 [4] | IC50 [5] | IC50 [6]

CC(C)CC(NC(=O)C(Cc1ccccc1)NC(=O)c1cnccn1)B(O)O (stereo not drawn)
0.00447 µM and 0.00475 µM: IC50 (curve of compound)
active: viability, T/C (compound 0.03 µM) 8.01% and 3.1% | viability, T/C (compound 0.0949 µM) 7.3% and 7.41% | viability, T/C (compound 0.3 µM) 6.04% and 11.3%
inactive: viability, T/C (compound 0.000949 µM) 86.3% and 91.7% | viability, T/C (compound 0.003 µM) 68% and 73.5% | viability, T/C (compound 0.00949 µM) 16.2% and 14.8%

O=C(c1cc(Cc2n[nH]c(=O)c3ccccc23)ccc1F)N1CCN(C(=O)C2CC2)CC1
> 10 µM: IC50 (curve of compound)
inactive: viability, T/C (compound 0.0316 µM) 86.8% and 91.2% | viability, T/C (compound 0.1 µM) 96.3% and 91.3% | viability, T/C (compound 0.316 µM) 90.6% and 110% | viability, T/C (compound 1 µM) 88.7% and 91.9% | viability, T/C (compound 3.16 µM) 74.6% and 93.7% | viability, T/C (compound 10 µM) 55.2% and 51.5%

C=C(F)C(=O)N1CCN(c2nc(OCC3CCCN3C)nc3c2CCN(c2cccc4cccc(Cl)c24)C3)CC1CC#N (stereo not drawn) + CNC(=O)c1ccc(Nc2nc(OC3CCCC3)c3c(-c4ccc5nc(C)oc5c4)c[nH]c3n2)c(OC)c1
3.64 µM: IC50 [3]
inactive: viability, T/C (second compound 0.0316 µM, first compound 0.0316 µM) 84.5% | viability, T/C (second compound 0.0316 µM, first compound 0.1 µM) 85.8% | viability, T/C (second compound 0.0316 µM, first compound 0.316 µM) 88.8% | viability, T/C (second compound 0.0316 µM, first compound 1 µM) 112% | viability, T/C (second compound 0.0316 µM, first compound 3.16 µM) 126% | viability, T/C (second compound 0.1 µM, first compound 0.0316 µM) 58.8% | viability, T/C (second compound 0.1 µM, first compound 0.1 µM) 53.8% | viability, T/C (second compound 0.1 µM, first compound 0.316 µM) 65.5% | viability, T/C (second compound 0.1 µM, first compound 1 µM) 64% | viability, T/C (second compound 0.1 µM, first compound 3.16 µM) 90.2% | viability, T/C (second compound 0.316 µM, first compound 0.0316 µM) 54.6% | viability, T/C (second compound 0.316 µM, first compound 0.1 µM) 47.9% | viability, T/C (second compound 0.316 µM, first compound 0.316 µM) 49.3% | viability, T/C (second compound 0.316 µM, first compound 1 µM) 56.3% | viability, T/C (second compound 0.316 µM, first compound 3.16 µM) 72.1% | viability, T/C (second compound 1 µM, first compound 0.0316 µM) 46.5% | viability, T/C (second compound 1 µM, first compound 0.1 µM) 42.9% | viability, T/C (second compound 1 µM, first compound 0.316 µM) 43.7% | viability, T/C (second compound 1 µM, first compound 1 µM) 49% | viability, T/C (second compound 1 µM, first compound 3.16 µM) 62.8% | viability, T/C (second compound 3.16 µM, first compound 0.0316 µM) 46.2% | viability, T/C (second compound 3.16 µM, first compound 0.1 µM) 43.3% | viability, T/C (second compound 3.16 µM, first compound 0.316 µM) 45.4% | viability, T/C (second compound 3.16 µM, first compound 1 µM) 51.5% | viability, T/C (second compound 3.16 µM, first compound 3.16 µM) 48.1% | viability, T/C (second compound 10 µM, first compound 0.0316 µM) 53.9% | viability, T/C (second compound 10 µM, first compound 0.1 µM) 36.1% | viability, T/C (second compound 10 µM, first compound 0.316 µM) 46.7% | viability, T/C (second compound 10 µM, first compound 1 µM) 54.5% | viability, T/C (second compound 10 µM, first compound 3.16 µM) 43.8%
5.89 µM: IC50 [1]
< 0.0316 µM: IC50 [5] | IC50 [6]
0.0316 µM: IC50 [4]
active: viability, T/C (second compound 0.0316 µM, first compound 10 µM) 8.03% | viability, T/C (second compound 0.1 µM, first compound 10 µM) 1.94% | viability, T/C (second compound 0.316 µM, first compound 10 µM) 6.63% | viability, T/C (second compound 1 µM, first compound 10 µM) 1.4% | viability, T/C (second compound 3.16 µM, first compound 10 µM) 0.86% | viability, T/C (second compound 10 µM, first compound 10 µM) 5.33%
4.25 µM: IC50 [2]
